According to patent US6579881B2 (Eisai Co., Ltd., priority 1997, dated 2003):
Structures can show the parent of a compound that is named as a salt.

Assays:
serotonin 1A receptor = target: T1, serotonin 1A receptor (Rattus norvegicus, UniProt P19327); test: Binding test on [3H] 8-hydroxy-dipropylaminotetralin (serotonin 1A receptor); conditions: [3H] 8-OH-DPAT 0.5 nM, receptor fraction of rat hippocampus; read-out: 5HT1a
T1 construct: To the receptor fraction of the hippocampus were added a test compound and 0.5 nM of [^3H]; 8-hydroxy-dipropylaminotetralin; from tissue; host or cells: SD rat hippocampus, membrane (receptor) fraction
T1 sequence (P19327 1-422): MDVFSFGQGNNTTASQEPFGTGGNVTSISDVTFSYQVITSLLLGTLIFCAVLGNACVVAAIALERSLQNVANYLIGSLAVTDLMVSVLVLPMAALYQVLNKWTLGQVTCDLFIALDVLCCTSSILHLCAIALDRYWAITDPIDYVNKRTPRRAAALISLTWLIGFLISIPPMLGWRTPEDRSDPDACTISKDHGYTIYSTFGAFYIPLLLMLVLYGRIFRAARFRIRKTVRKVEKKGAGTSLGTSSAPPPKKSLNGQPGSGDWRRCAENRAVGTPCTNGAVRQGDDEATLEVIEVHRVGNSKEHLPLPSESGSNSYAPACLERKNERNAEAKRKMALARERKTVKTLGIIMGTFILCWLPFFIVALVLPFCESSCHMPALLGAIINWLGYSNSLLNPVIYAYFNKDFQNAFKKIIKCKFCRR

serotonin 2 receptor = serotonin 2 receptor (Rattus norvegicus, UniProt P14842); test: Binding test on [3H] ketanserin (serotonin 2 receptor); conditions: [3H] ketanserin 0.3 nM, receptor fraction of rat cerebral cortex; read-out: 5HT2
Sequence of serotonin 2 receptor (P14842 whole entry): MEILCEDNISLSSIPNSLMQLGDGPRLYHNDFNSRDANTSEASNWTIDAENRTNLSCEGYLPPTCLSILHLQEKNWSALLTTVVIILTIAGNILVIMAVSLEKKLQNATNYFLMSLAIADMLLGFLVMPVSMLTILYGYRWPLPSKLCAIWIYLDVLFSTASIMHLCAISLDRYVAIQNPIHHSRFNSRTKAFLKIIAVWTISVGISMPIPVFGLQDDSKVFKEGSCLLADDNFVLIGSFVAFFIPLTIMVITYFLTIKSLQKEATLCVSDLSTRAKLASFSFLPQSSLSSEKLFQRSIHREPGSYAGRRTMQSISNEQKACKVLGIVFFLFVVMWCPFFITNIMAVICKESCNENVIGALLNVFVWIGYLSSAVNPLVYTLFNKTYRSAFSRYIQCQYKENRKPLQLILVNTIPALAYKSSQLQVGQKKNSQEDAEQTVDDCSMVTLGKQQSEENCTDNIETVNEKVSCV

SMILES: OCCOc1cccc2c1N(C1CCN(CCc3ccc(F)cc3)CC1)CC2 [Example 123, 1-[1-(4-fluorophenethyl)piperidin-4-yl]-7-hydroxyethoxyindoline]
- Ki (serotonin 1A receptor): 251 nM
- Ki (serotonin 2 receptor): 2.7 nM

SMILES: CCN1CCC(CN2CC(Cc3ccc(OC)cc3)c3ccccc32)CC1 (centres unmarked) [Example 243, 1-[(1-ethylpiperidin-4-yl)methyl]-3-(4-methoxybenzyl)indoline]
- Ki (serotonin 1A receptor): > 200 nM
- Ki (serotonin 2 receptor): 53 nM

SMILES: O=C(NCCN1CCC(N2CCc3ccccc32)CC1)c1ccc(F)cc1 [Example 75, 1-[1-(4-fluorobenzamido)ethylpiperidin-4-yl]indoline]
- Ki (serotonin 1A receptor): 3.6 nM
- Ki (serotonin 2 receptor): 30.3 nM

SMILES: N#Cc1ccc2c(c1)N(C1CCN(CCc3ccc(F)cc3)CC1)CC2 [Example 124, 1-[1-(4-fluorophenethyl)piperidin-4-yl]-6-cyanoindoline]
- Ki (serotonin 1A receptor): 1.1 nM
- Ki (serotonin 2 receptor): 45.8 nM

SMILES: O=C(CCl)NCc1ccc(CCN2CCC(N3CCc4ccccc43)CC2)cc1 [Example 37, 1-[1-(4-chloroacetamidomethylphenethyl)piperidin-4-yl]indoline]
- Ki (serotonin 1A receptor): 4.6 nM
- Ki (serotonin 2 receptor): 14.8 nM

SMILES: Fc1ccc(CCN2CCC(N3CCc4cc5c(cc43)OCO5)CC2)cc1 [Example 284, 1-[1-(4-fluorophenethyl)piperidin-4-yl]-5,6-methylenedioxyindoline]
- Ki (serotonin 1A receptor): 4.5 nM
- Ki (serotonin 2 receptor): 4.7 nM

SMILES: CCN1CC[C@H](N2CCc3ccccc32)[C@@H](COCc2ccc(F)cc2)C1 (relative stereo) [Example 85, trans-1-[1-ethyl-3-(4-fluorobenzyloxymethyl)piperidin-4-yl]indoline]
- Ki (serotonin 1A receptor): 170 nM
- Ki (serotonin 2 receptor): 56.2 nM

SMILES: COc1ccc(CC(C)N2CCC(N3CCc4ccccc43)CC2)cc1OC (centres unmarked) [Example 76, 1-{1-[1-(3,4-dimethoxyphenyl)propan-2-yl]piperidin-4-yl}indoline]
- Ki (serotonin 1A receptor): 43.2 nM
- Ki (serotonin 2 receptor): > 200 nM

SMILES: Nc1ccc2c(c1)N(C1CCN(CCc3ccc(F)cc3)CC1)CC2 [Example 110, 1-[1-(4-fluorophenethyl)piperidin-4-yl]-6-aminoindoline]
- Ki (serotonin 1A receptor): 23.3 nM
- Ki (serotonin 2 receptor): 16 nM

SMILES: Fc1ccc(OCCCN2CCC(N3CCc4ccccc43)CC2)cc1 [Example 69, 1-{1-[3-(4-fluorophenoxy)propyl]piperidin-4-yl}indoline]
- Ki (serotonin 1A receptor): 9.7 nM
- Ki (serotonin 2 receptor): 29.9 nM

SMILES: CS(=O)(=O)Nc1ccc2c(c1)N(C1CCN(CCc3ccc(F)cc3)CC1)CC2 [Example 116, 1-[1-(4-fluorophenethyl)piperidin-4-yl]-6-methanesulfonylaminoindoline]
- Ki (serotonin 1A receptor): 0.5 nM
- Ki (serotonin 2 receptor): 14.3 nM

SMILES: COc1cncc(CCN2CCC(N3CCc4ccccc43)CC2)c1 [Example 53, 1-{1-[2-(3-methoxypyridin-5-yl)ethyl]piperidin-4-yl}indoline]
- Ki (serotonin 1A receptor): 21.5 nM
- Ki (serotonin 2 receptor): 2.1 nM

SMILES: CN1CCC(Cc2ccc3c(c2)N(C2CCN(CCc4ccc(F)cc4)CC2)CC3)CC1 [Example 170, 1-[1-(4-fluorophenethyl)piperidin-4-yl]-6-[(1-methylpiperidin-4-yl)methyl]indoline]
- Ki (serotonin 1A receptor): 47.5 nM
- Ki (serotonin 2 receptor): 16.3 nM

SMILES: Fc1ccc(CCN2CCC(C3CCc4cccnc43)CC2)cc1 (centres unmarked) [Example 257, 7-[1-(4-fluorophenethyl)piperidin-4-yl]-5,6-dihydro-7H-pyrindine]
- Ki (serotonin 1A receptor): 2.8 nM
- Ki (serotonin 2 receptor): 0.61 nM

SMILES: OC1(c2ccc3c(c2)N(C2CCN(CCc4ccc(F)cc4)CC2)CC3)CCC1 [Example 140, 1-[1-(4-fluorophenethyl)piperidin-4-yl]-6-(1-hydroxycyclobutyl)indoline]
- Ki (serotonin 1A receptor): 6.23 nM
- Ki (serotonin 2 receptor): 35.1 nM

SMILES: COc1ccc(CC2CN(C3CCN(CCc4ccc(F)cc4)CC3)c3ccccc32)cc1 (centres unmarked) [Example 215, 1-[1-(4-fluorophenethyl)piperidin-4-yl]-3-(4-methoxybenzyl)indoline]
- Ki (serotonin 1A receptor): 126 nM
- Ki (serotonin 2 receptor): 1 nM

SMILES: COc1ccc2c(c1)C(N1CCN(CC(=O)c3ccc(F)cc3)CC1)CCC2 (centres unmarked) [Example 281, 1-{4-[2-(4-fluorophenyl)-2-oxoethyl]piperazin-1-yl}-7-methoxy-1,2,3,4-tetrahydronaphthalene Hydrochloride]
- Ki (serotonin 1A receptor): 35.2 nM
- Ki (serotonin 2 receptor): 11.2 nM

SMILES: O=C(c1ccc2c(c1)N(C1CCN(CCc3ccc(F)cc3)CC1)CC2)n1cccc1 [Example 126, 1-[1-(4-fluorophenethyl)piperidin-4-yl]-6-(1-pyrrolylcarbonyl)indoline]
- Ki (serotonin 1A receptor): 1.23 nM
- Ki (serotonin 2 receptor): 129 nM

SMILES: N#Cc1ccc(CCN2CCC(N3CCc4ccccc43)CC2)cn1 [Example 54, 1-{1-[2-(2-cyanopyridin-5-yl)ethyl]piperidin-4-yl}indoline]
- Ki (serotonin 1A receptor): 7.1 nM
- Ki (serotonin 2 receptor): 10.3 nM

SMILES: COc1ccc(CCN2CCC(N3CCc4ccccc43)CC2)cn1 [Example 52, 1-{1-[2-(2-methoxy-5-pyridyl)ethyl]piperidin-4-yl}indoline]
- Ki (serotonin 1A receptor): 2.5 nM
- Ki (serotonin 2 receptor): 5.6 nM

SMILES: OCCOc1cccc(CCN2CCC(N3CCc4ccccc43)CC2)c1 [Example 43, 1-{3-[(2-hydroxyethoxy)phenethyl]piperidin-4-yl}indoline]
- Ki (serotonin 1A receptor): 4.2 nM
- Ki (serotonin 2 receptor): 37.9 nM

SMILES: OCc1cncc(CCN2CCC(N3CCc4ccccc43)CC2)c1 [Example 56, 1-{1-[2-(3-hydroxymethylpyridin-5-yl)ethyl]piperidin-4-yl}indoline]
- Ki (serotonin 1A receptor): 20.7 nM
- Ki (serotonin 2 receptor): 1.7 nM

SMILES: Fc1ccc(CCN2CCC(N3CCc4ccc(Cc5nccs5)cc43)CC2)cc1 [Example 214, 1-[1-(4-fluorophenethyl)-piperidin-4-yl]-6-(2-thiazolyl)methylindoline]
- Ki (serotonin 1A receptor): 3.5 nM
- Ki (serotonin 2 receptor): 0.9 nM

SMILES: c1ccc2c(c1)CCN2C1CCN(CCc2ccc3ncsc3c2)CC1 [Example 63, 1-{1-[2-(6-benzothiazolyl)ethyl]piperidin-4-yl}indoline]
- Ki (serotonin 1A receptor): 3.2 nM
- Ki (serotonin 2 receptor): 1.2 nM

SMILES: Cc1ncsc1CCN1CCC(N2CCc3ccccc32)CC1 [Example 61, 1-[1-(4-methyl-5-thiazolethyl)piperidin-4-yl]indoline]
- Ki (serotonin 1A receptor): 5 nM
- Ki (serotonin 2 receptor): 12.5 nM

SMILES: c1csc(CCN2CCC(N3CCc4ccccc43)CC2)c1 [Example 58, 1-{1-[2-(2-thienyl)ethyl]piperidin-4-yl}indoline]
- Ki (serotonin 1A receptor): 26.2 nM
- Ki (serotonin 2 receptor): 34.8 nM

SMILES: Fc1ccc(CCN2CCC(N3CCc4ccc(Cn5ccnc5)cc43)CC2)cc1 [Example 211, 1-[1-(4-fluorophenethyl)piperidin-4-yl]-6-(imidazol-1-yl)methylindoline]
- Ki (serotonin 1A receptor): 0.53 nM
- Ki (serotonin 2 receptor): 1.21 nM

SMILES: CC(C)Nc1ccc2c(c1)N(C1CCN(CCc3ccc(F)cc3)CC1)CC2 [Example 113, 1-[1-(4-fluorophenethyl)piperidin-4-yl]-6-isopropylaminoindoline]
- Ki (serotonin 1A receptor): 13.7 nM
- Ki (serotonin 2 receptor): > 200 nM

SMILES: CNC(=O)Cc1ccc2c(c1)N(C1CCN(CCc3ccc(F)cc3)CC1)CC2 [Example 148, 1-[1-(4-fluorophenethyl)piperidin-4-yl]-6-(methylcarbamoylmethyl)indoline]
- Ki (serotonin 1A receptor): 9.58 nM
- Ki (serotonin 2 receptor): 0.25 nM

SMILES: Fc1cc(F)cc(CCN2CCC(N3CCc4ccccc43)CC2)c1 [Example 12, 1-[1-(3,5-difluorophenethyl)piperidin-4-yl]indoline]
- Ki (serotonin 1A receptor): 8.5 nM
- Ki (serotonin 2 receptor): 16.3 nM

SMILES: OC(CCCN1CCC(N2CCc3ccccc32)CC1)c1ccc(F)cc1 (centres unmarked) [Example 73, 1-{1-[4-(4-fluorophenyl)-4-hydroxybutyl]piperidin-4-yl}indoline]
- Ki (serotonin 1A receptor): 34.9 nM
- Ki (serotonin 2 receptor): 7.2 nM

SMILES: O/N=C/c1ccc2c(c1)N(C1CCN(CCc3ccc(F)cc3)CC1)CC2 [Example 131, 1-[1-(4-fluorophenethyl)piperidin-4-yl]-6-hydroxyiminomethylindoline]
- Ki (serotonin 1A receptor): 0.17 nM
- Ki (serotonin 2 receptor): 15.2 nM

SMILES: c1ccc2c(c1)CCN2C1CCN(CCc2ccsc2)CC1 [Example 59, 1-{1-[2-(3-thienyl)ethyl]piperidin-4-yl}indoline]
- Ki (serotonin 1A receptor): 12 nM
- Ki (serotonin 2 receptor): 28.9 nM

SMILES: OC(c1ccncc1)c1ccc2c(c1)N(C1CCN(CCc3ccc(F)cc3)CC1)CC2 (centres unmarked) [Example 178]
- Ki (serotonin 1A receptor): 10.2 nM
- Ki (serotonin 2 receptor): 2.53 nM

SMILES: O=C(O)Cc1ccc2c(c1)N(C1CCN(CCc3ccc(F)cc3)CC1)CC2 [Example 146, 1-[1-(4-fluorophenethyl)piperidin-4-yl]-6-carboxymethylindoline]
- Ki (serotonin 1A receptor): 164 nM
- Ki (serotonin 2 receptor): > 200 nM

SMILES: CCN1CCC(N2CC(CCc3cccc(OC)c3)c3ccccc32)CC1 (centres unmarked) [Example 246, 1-(1-ethylpiperidin-4-yl)-3-(3-methoxyphenethyl)indoline]
- Ki (serotonin 1A receptor): > 200 nM
- Ki (serotonin 2 receptor): 60 nM

SMILES: Fc1ccc(CCN2CCC(N3CCc4cc5scnc5cc43)CC2)cc1 [Example 234, 1-[1-(4-fluorophenethyl)piperidin-4-yl]thiazolo[5,4-f]indoline]
- Ki (serotonin 1A receptor): 1.1 nM
- Ki (serotonin 2 receptor): 3.3 nM

SMILES: OC(c1ccc2c(c1)N(C1CCN(CCc3ccc(F)cc3)CC1)CC2)c1nccs1 (centres unmarked) [Example 193, 1-[1-(4-fluorophenethyl)piperidin-4-yl]-6-[1-(2-thiazolyl)-1-hydroxymethyl]indoline]
- Ki (serotonin 1A receptor): 6.92 nM
- Ki (serotonin 2 receptor): 2.88 nM

SMILES: N#Cc1ncc(CCN2CCC(N3CCc4ccccc43)CC2)s1 [Example 66]
- Ki (serotonin 1A receptor): 50.9 nM
- Ki (serotonin 2 receptor): 85 nM

SMILES: O=C(c1cccnc1)c1ccc2c(c1)N(C1CCN(CCc3ccc(F)cc3)CC1)CC2 [Example 183, 1-[1-(4-fluorophenethyl)piperidin-4-yl]-6-(3-pyridylcarbonyl)indoline]
- Ki (serotonin 1A receptor): 1.18 nM
- Ki (serotonin 2 receptor): 3.86 nM
